According to paper PMC12169613 (Journal of Medicinal Chemistry, 2025):
pIC50, pKi: −log10 of the molar value. Like-named read-outs stand apart in the source and are kept apart here.

How the values were obtained:
human Y1 receptor (hY1R) = human Y1 receptor (hY1R) (Homo sapiens, UniProt P25929)
Nluc-GPR1 = Nluc-GPR1 (Homo sapiens, UniProt P46091); assay: cell-based
Procedure: After overnight incubation at standard conditions, 75,000 cells/well were seeded into a black, solid 96-well plate using phenol red-free culture medium. […] (positive control) was added to the cells. […] The readout was performed directly in a microplate reader (Tecan Spark) with a filter for fluorescence (λem = 550–700 nm) and bioluminescence (λem = 430–470 nm). Data studies were performed as mentioned for arr-3 BRET.

CMKLR1 [1] = details: cited from earlier work
CMKLR1 [2] = target: CMKLR1 (Homo sapiens, UniProt Q99788)
Chain of CMKLR1 (Homo sapiens, UniProt Q99788) (Q99788 3-373): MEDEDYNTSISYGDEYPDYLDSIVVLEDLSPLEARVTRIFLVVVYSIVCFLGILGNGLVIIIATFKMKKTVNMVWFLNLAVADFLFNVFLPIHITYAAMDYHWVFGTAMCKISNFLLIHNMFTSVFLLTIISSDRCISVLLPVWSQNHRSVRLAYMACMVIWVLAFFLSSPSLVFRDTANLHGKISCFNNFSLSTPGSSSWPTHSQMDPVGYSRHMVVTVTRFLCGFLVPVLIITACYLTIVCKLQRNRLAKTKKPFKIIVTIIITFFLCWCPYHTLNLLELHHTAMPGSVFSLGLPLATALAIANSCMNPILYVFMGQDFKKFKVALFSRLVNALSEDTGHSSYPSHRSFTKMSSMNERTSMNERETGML
Description: Data are presented as mean±SEM.
(2 pictures or pasted objects on this page, not shown here)

Chain of Nluc-GPR1 (P46091 whole entry): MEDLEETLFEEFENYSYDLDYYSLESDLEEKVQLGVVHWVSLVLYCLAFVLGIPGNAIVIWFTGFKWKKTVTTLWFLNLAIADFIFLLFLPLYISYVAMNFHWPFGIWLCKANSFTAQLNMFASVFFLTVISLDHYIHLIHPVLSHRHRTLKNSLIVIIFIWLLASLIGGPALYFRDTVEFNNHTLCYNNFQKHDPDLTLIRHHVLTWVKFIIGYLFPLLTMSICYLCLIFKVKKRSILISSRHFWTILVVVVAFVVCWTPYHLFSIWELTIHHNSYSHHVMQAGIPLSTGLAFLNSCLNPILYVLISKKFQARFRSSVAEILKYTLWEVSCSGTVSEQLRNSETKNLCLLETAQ
Chain of human Y1 receptor (hY1R) (P25929 whole entry): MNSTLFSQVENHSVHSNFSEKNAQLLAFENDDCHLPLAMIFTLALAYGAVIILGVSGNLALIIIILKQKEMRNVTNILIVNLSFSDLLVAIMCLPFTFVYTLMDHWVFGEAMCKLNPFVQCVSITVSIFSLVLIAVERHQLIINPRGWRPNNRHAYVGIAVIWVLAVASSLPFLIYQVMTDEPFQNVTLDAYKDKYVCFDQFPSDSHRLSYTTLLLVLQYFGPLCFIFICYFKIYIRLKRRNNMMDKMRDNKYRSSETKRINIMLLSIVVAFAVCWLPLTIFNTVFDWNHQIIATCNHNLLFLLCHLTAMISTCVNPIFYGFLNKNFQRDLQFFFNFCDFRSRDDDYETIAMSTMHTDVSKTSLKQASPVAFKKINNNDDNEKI

**Q.** Which “effect at hY1R (in words)” value (human Y1 receptor (hY1R)) does the source give for `COc1ccc(C)cc1NC(=O)CSc1nc(=O)c(S(=O)(=O)c2ccc(C)c(Cl)c2)c[nH]1` [Compound 1, 2-{[5-(3-Chloro-4-methylbenzenesulfonyl)-4-oxo-1,4-dihydropyrimidin-2-yl]sulfanyl}-N-(2-methoxy-5-methyl-phenyl)acetamide] here?
**A.** no effect

**Q.** And the pKi (Nluc-GPR1)?
**A.** < 6.00

**Q.** And the pKi (Nluc-GPR1; read-out: Nluc-GPR1 Ki)?
**A.** 5.88

**Q.** With `C[N+](C)(C)CCC(=O)c1cccc2ccccc12.[I-]` [α-NETA, 2-(α-naphthoyl)-ethyl-trimethylammonium iodide] as the molecule, how does the pIC50 (CMKLR1 [1]) read?
**A.** 6.42

**Q.** And the “influence on CMKLR1 G protein signaling (in words)” value (CMKLR1 [2])?
**A.** No influence
